Assay results from patent publication US20250262201A1, “COMPOUNDS AND METHODS USEFUL FOR STABILIZING PHENYLALANINE HYDROXYLASE MUTATIONS” (Agios Pharmaceuticals, Inc., priority 2022, published 2025).

What follows are compounds tested against T1, human PAH with the R408W mutation (Homo sapiens, UniProt P00439, R408W) (assay: Cell Based Phenylalanine Flux Assay). Settings: A375 cells expressing human R408W PAH; 24 hrs compound incubation; 13C-Tyrosine by LC-MS; average where tested multiple times; read-out: AC50.
T1 construct: expressed in transfected cells
T1 sequence (P00439 1-452 R408W): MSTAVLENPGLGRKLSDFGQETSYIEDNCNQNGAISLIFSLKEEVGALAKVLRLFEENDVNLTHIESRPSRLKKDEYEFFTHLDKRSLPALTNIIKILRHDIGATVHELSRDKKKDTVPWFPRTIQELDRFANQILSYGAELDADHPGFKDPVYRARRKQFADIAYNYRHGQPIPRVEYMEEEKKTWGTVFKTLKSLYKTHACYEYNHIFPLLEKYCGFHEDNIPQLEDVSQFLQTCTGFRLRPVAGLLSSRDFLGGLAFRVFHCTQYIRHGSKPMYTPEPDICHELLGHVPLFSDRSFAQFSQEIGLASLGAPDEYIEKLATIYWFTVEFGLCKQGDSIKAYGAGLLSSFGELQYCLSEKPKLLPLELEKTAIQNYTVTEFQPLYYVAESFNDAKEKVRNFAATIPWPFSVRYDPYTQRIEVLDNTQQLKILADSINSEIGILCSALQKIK
In the case of C[C@H]1CN(C(=O)c2nnc(C(C)(C)F)o2)[C@H](c2cc3ccccc3cn2)c2nc[nH]c21 [Example 499, (5-(2-fluoropropan-2-yl)-1,3,4-oxadiazol-2-yl)((4R,7S)-4-(isoquinolin-3-yl)-7-methyl-6,7-dihydro-1H-imidazo[4,5-c]pyridin-5(4H)-yl)methanone], the AC50 is reported as 500 to 1000 nM.
In the case of C[C@@H]1CN(C(=O)c2nnc(C(C)(C)F)o2)[C@H](c2cc3ccccc3cn2)c2nc[nH]c21 [Example 501, (5-(2-fluoropropan-2-yl)-1,3,4-oxadiazol-2-yl)((4R,7R)-4-(isoquinolin-3-yl)-7-methyl-6,7-dihydro-1H-imidazo[4,5-c]pyridin-5(4H)-yl)methanone], the AC50 is reported as < 500 nM.
In the case of C[C@H]1CN(C(=O)c2cnco2)[C@H](c2cc3ccccc3cn2)c2nc[nH]c21 [Example 503, ((4R,7S)-4-(isoquinolin-3-yl)-7-methyl-6,7-dihydro-1H-imidazo[4,5-c]pyridin-5(4H)-yl)(oxazol-5-yl)methanone], the AC50 is reported as 500 to 1000 nM.
With C[C@@H]1CN(C(=O)c2cnco2)[C@H](c2cc3ccccc3cn2)c2nc[nH]c21 [Example 505, ((4R,7R)-4-(isoquinolin-3-yl)-7-methyl-6,7-dihydro-1H-imidazo[4,5-c]pyridin-5(4H)-yl)(oxazol-5-yl)methanone] the AC50 was < 500 nM.
For C[C@H]1CN(C(=O)c2ocnc2C2CC2)[C@H](c2cc3ccccc3cn2)c2nc[nH]c21 [Example 506, (4-cyclopropyloxazol-5-yl)((4R,7S)-4-(isoquinolin-3-yl)-7-methyl-6,7-dihydro-1H-imidazo[4,5-c]pyridin-5(4H)-yl)methanone], the AC50 was < 500 nM.
With C[C@H]1CN(C(=O)c2ocnc2C2CC2)[C@@H](c2cc3ccccc3cn2)c2nc[nH]c21 [Example 507, (4-cyclopropyloxazol-5-yl)((4S,7S)-4-(isoquinolin-3-yl)-7-methyl-6,7-dihydro-1H-imidazo[4,5-c]pyridin-5(4H)-yl)methanone] the AC50 was 1000 to 5000 nM.
C[C@H]1CN(C(=O)c2nnc(C3CC3)o2)[C@H](c2cc3ccccc3cn2)c2nc[nH]c21 [Example 511, (5-cyclopropyl-1,3,4-oxadiazol-2-yl)((4R,7S)-4-(isoquinolin-3-yl)-7-methyl-6,7-dihydro-1H-imidazo[4,5-c]pyridin-5(4H)-yl)methanone] showed an AC50 of 500 to 1000 nM.
With C[C@@H]1CN(C(=O)c2nnc(C3CC3)o2)[C@H](c2cc3ccccc3cn2)c2nc[nH]c21 [Example 513, (5-cyclopropyl-1,3,4-oxadiazol-2-yl)((4R,7R)-4-(isoquinolin-3-yl)-7-methyl-6,7-dihydro-1H-imidazo[4,5-c]pyridin-5(4H)-yl)methanone] the AC50 was 500 to 1000 nM.
In the case of COc1ccc(-c2nnc(C(=O)N3C[C@H](C)c4[nH]cnc4[C@@H]3c3cc4ccccc4cn3)o2)nc1 [Example 515, ((4S,7S)-4-(isoquinolin-3-yl)-7-methyl-6,7-dihydro-1H-imidazo[4,5-c]pyridin-5(4H)-yl)(5-(5-methoxypyridin-2-yl)-1,3,4-oxadiazol-2-yl)methanone], the AC50 is reported as 1000 to 5000 nM.
COc1ccc(-c2nnc(C(=O)N3C[C@H](C)c4[nH]cnc4[C@H]3c3cc4ccccc4cn3)o2)nc1 [Example 516, ((4R,7S)-4-(isoquinolin-3-yl)-7-methyl-6,7-dihydro-1H-imidazo[4,5-c]pyridin-5(4H)-yl)(5-(5-methoxypyridin-2-yl)-1,3,4-oxadiazol-2-yl)methanone] gave an AC50 of 500 to 1000 nM.
N#Cc1ncoc1C(=O)N1CCc2[nH]cnc2[C@H]1c1cc2ccccc2cn1 [Example 517, (R)-5-(4-(isoquinolin-3-yl)-4,5,6,7-tetrahydro-1H-imidazo[4,5-c]pyridine-5-carbonyl)oxazole-4-carbonitrile] was tested, and the AC50 was < 500 nM.
For Cn1ncnc1C(=O)N1CCc2[nH]cnc2[C@H]1c1cc2ccccc2cn1 [Example 518, [(4R)-4-(3-isoquinolyl)-1,4,6,7-tetrahydroimidazo[4,5-c]pyridin-5-yl]-(2-methyl-1,2,4-triazol-3-yl)methanone], the AC50 was < 500 nM.
In the case of “(R)-(5-(1-methyl-1H-imidazol-4-yl)-1,3-oxadiazol-2- yl)(4-(quinazolin-2-yl)-6,7-dihydro-1H-imidazo[4,5- c]pyridin-5(4H)-yl)methanone [Example 198]”, the AC50 is reported as > 5000 nM.
